Assay results taken from US20110034526A1, “Benzimidazole Compounds” (Wyeth LLC, priority 2007, published 2011).
pEC50, pIC50: −log10 of the molar value. Where two headings read alike, the source gives them in different places.

Tests used:
[1] = system: ABCA1 gene; test: Quantitative analysis of ABCA1 gene regulation in THP-1 cells (real-time PCR); assay type: cell-based, human; settings: read-out: EC50 ABCA1
Procedure: The compounds of formula (I) effect on the regulation of the ABCA1 gene was evaluated using the following procedure.
The THP-1 monocytic cell line (ATCC # TIB-202) was obtained from American Type Culture Collection (Manassas, Va.) and cultured in RPMI 1640 medium (Gibco, Carlsbad, Calif.) containing 10% FBS, 2 mM L-glutamine, and 55 uM beta-Mercaptoethanol (BME). […] Differentiated THP-1 cells were treated with test compounds or ligands dissolved in DMSO (Sigma, D-8779) in culture medium lacking phorbal ester. […] Unstimulated cells treated with vehicle were included as negative controls on each plate. An LXR agonist reference, N-(2,2,2-trifluoro-ethyl)-N-[4-(2,2,2-trifluoro-1-hydroxy-1-trifluoromethyl-ethyl)-phenyl]-benzenesulfonamide (Schultz, Joshua R., Genes & Development (2000), 14(22), 2831-2838), was dosed at 1.0 uM and served as a positive control. […] Results of antagonist analysis are expressed as % antagonism and IC50 (in μM).
Total cellular RNA was isolated from treated cells cultured in 96-well plates using PrepStation 6100 (Applied Biosystems, Foster City, Calif.), according to the manufacturer's recommendations. RNA was resuspended in ribonuclease-free water and stored at −70° C. prior to analysis. RNA concentrations were quantitated with RiboGreen test procedure, #R-11490 (Molecular Probes, Eugene, Oreg.).
Gene-specific mRNA quantitation was performed by real-time PCR with the Perkin Elmer Corp. chemistry on an ABI Prism 7700 Sequence detection system (Applied Biosystems, Foster City, Calif.) according to the manufacturer's instructions. Samples (50-100 ng) of total RNA were assayed in duplicate or triplicate in 50 μl reactions using one-step RT-PCR and the standard curve method to estimate specific mRNA concentrations. Sequences of gene-specific primer and probe sets were designed with Primer Express Software (Applied Biosystems, Foster City, Calif.). […] RT and PCR reactions were performed according to PE Applied Biosystem's protocol for Taqman Gold RT-PCR or Qiagen's protocol for Quantitect probe RT-PCR. Relative levels of ABCA1 mRNA are normalized using GAPDH mRNA or 18S rRNA probe/primer sets purchased commercially (Applied Biosystems, Foster City, Calif.).
Mean, standard deviation and statistical significance of duplicate evaluations of RNA samples were assessed using ANOVA, one-way analysis of variance using SAS analysis.

[2] = target: T1, human LXRα (Homo sapiens, UniProt Q13133); test: Ligand-binding test procedure for human LXRα (3H T0901317 tracer, flash plates); settings: biotinylated hLXRα, tracer 3H T0901317
T1 construct: biotin (biotinylated); made in house; host or cells: E. coli (crude extract)
T1 sequence (Q13133 1-447): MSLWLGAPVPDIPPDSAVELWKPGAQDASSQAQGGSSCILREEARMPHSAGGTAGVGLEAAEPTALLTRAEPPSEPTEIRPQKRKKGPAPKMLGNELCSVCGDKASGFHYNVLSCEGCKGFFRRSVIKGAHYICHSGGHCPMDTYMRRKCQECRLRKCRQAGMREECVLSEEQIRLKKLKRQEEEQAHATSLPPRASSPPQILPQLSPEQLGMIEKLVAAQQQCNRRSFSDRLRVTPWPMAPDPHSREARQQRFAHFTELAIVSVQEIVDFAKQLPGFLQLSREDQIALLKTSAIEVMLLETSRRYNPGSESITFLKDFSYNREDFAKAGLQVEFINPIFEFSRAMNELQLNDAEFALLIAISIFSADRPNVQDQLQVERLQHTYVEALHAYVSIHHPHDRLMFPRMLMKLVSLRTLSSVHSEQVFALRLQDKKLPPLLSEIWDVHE
Procedure: Receptor source: E. coli extract from cells expressing biotinylated hLXRcc. Extract was made in a similar buffer as above, but with 50 mM TRIS.
Washed streptavidin and coated flash plates with wash buffer. Diluted receptor extract to give Bmax ˜4000 cpm and add to the wells. Wrapped the plates in aluminum foil and stored them at +4° C. over night.
(§1) Made a dilution series in DMSO of the test ligands. Made a 5 nM solution of the radioactive tracer in buffer. Mixed 250 μl diluted tracer with 5 μl of the test ligand from each concentration of the dilution series. Washed the receptor-coated flash plates. Added 200 μl per well of the ligand/radiolabel mixture to the receptor-coated flash plates. Wrapped the plates in aluminum foil and incubate at +4° C. over night.
Aspirated wells, and wash the flashed plates. Sealed the plate. Measured the remaining radioactivity in the plate.

[3] = target: T2, human LXRβ (Homo sapiens, UniProt P55055); test: Ligand-binding test procedure for human LXRβ (3H T0901317 tracer, flash plates)
T2 construct: biotin (biotinylated); made in house; host or cells: E. coli (crude extract)
T2 sequence (P55055 1-460): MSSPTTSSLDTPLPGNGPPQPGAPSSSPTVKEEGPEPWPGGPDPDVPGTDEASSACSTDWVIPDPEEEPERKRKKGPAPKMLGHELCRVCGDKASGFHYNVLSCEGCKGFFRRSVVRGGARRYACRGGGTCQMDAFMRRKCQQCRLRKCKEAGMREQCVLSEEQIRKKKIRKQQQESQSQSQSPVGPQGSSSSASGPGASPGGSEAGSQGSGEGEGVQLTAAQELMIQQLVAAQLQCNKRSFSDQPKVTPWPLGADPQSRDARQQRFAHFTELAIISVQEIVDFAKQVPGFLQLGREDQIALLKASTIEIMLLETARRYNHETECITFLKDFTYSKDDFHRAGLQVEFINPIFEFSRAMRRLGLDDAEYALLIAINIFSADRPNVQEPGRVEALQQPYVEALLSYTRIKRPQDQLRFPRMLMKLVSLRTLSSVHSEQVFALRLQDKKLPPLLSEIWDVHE
Procedure: Receptor source: E. coli extracted from cells expressing biotinylated hLXRβ. Extract was made in a similar buffer as above, but with 50 mM TRIS.
Washed streptavidin and coated flash plates with wash buffer. Diluted receptor extract to give Bmax ˜4000 cpm and add to the wells. Wrapped the plates in aluminum foil and stored them at +4° C. overnight.
as §1
Aspirated wells, and washed the flashed plates. Sealed the plate. Measured the remaining radioactivity in the plate.

[4] = Gene regulation by LXR (Human), differentiated THP-1 cells, 18 hrs, ABCA1 mRNA

## Cc1nc2c(C(F)(F)F)cccc2n1-c1cccc(Oc2cccc(S(=O)(=O)CCCN)c2)c1 [Example 37, 3-[(3-{3-[2-methyl-4-(trifluoromethyl)-1H-benzimidazol-1-yl]phenoxy}phenyl)sulfonyl]propan-1-amine]
[1]; [4]
  pEC50: 5.33
[2]
  pIC50: 5.83
[3]
  pIC50: 7.39

## CS(=O)(=O)c1cc(F)cc(Oc2ccc(Cl)c(-n3cnc4c(C(F)(F)F)cccc43)c2)c1 [Example 82, 1-{2-chloro-5-[3-fluoro-5-(methylsulfonyl)phenoxy]phenyl}-4-(trifluoromethyl)-1H-benzimidazole]
[1]; Homo sapiens, THP-1, 18 h
  pEC50: 5.92
[2]
  pIC50: 6.99
[3]
  pIC50: 8.31

## Cc1nc2c(C(F)(F)F)cccc2n1-c1ccc(Oc2cc(F)cc(S(C)(=O)=O)c2)cc1 [Example 66, 1-{4-[3-fluoro-5-(methylsulfonyl)phenoxy]phenyl}-2-methyl-4-(trifluoromethyl)-1H-benzimidazole]
[1]; [4]
  pEC50: 6.45
[2]
  pIC50: 6.58
[3]
  pIC50: 7.29

## CCS(=O)(=O)c1cccc(Oc2ccc(-n3c(C)nc4c(C(F)(F)F)cccc43)cc2)c1 [Example 65, 1-{4-[3-(ethylsulfonyl)phenoxy]phenyl}-2-methyl-4-(trifluoromethyl)-1H-benzimidazole]
[1]; [4]
  pEC50: 6.45
[2]
  pIC50: 8.14
[3]
  pIC50: 8.89

## Cc1nc2c(C(F)(F)F)cccc2n1-c1cccc(-c2cccc(S(C)(=O)=O)c2)c1 [Example 75, 2-methyl-1-[3′-(methylsulfonyl)biphenyl-3-yl]-4-(trifluoromethyl)-1H-benzimidazole]
[1]; Homo sapiens, THP-1, 18 h
  pEC50: 6.67
[2]
  pIC50: 6.52
[3]
  pIC50: 7.90

## Cc1nc2c(C(F)(F)F)cccc2n1-c1cccc(Oc2cccc(S(=O)(=O)C3CC3)c2)c1 [Example 38, 1-{3-[3-(cyclopropylsulfonyl)phenoxy]phenyl}-2-methyl-4-(trifluoromethyl)-1H-benzimidazole]
[1]; [4]
  pEC50: 6.19
[2]
  pIC50: 6.85
[3]
  pIC50: 8.24

## Cc1nc2c(C(F)(F)F)cccc2n1-c1cccc(OCc2cccc(S(C)(=O)=O)c2)c1 [Example 107, 2-methyl-1-(3-{[3-(methylsulfonyl)benzyl]oxy}phenyl)-4-(trifluoromethyl)-1H-benzimidazole]
[1]; [4]
  pEC50: 5.45
[2]
  pIC50: 5.71
[3]
  pIC50: 6.92

## Cc1nc2c(C(F)(F)F)cccc2n1-c1cccc(Oc2cccc(S(=O)(=O)CCCS(C)(=O)=O)c2)c1 [Example 76, 2-methyl-1-[3-(3-{[3-(methylsulfonyl)propyl]sulfonyl}phenoxy)phenyl]-4-(trifluoromethyl)-1H-benzimidazole]
[1]; Homo sapiens, THP-1, 18 h
  pEC50: 6.81
[2]
  pIC50: 6.50
[3]
  pIC50: 7.70

## CCc1nc2c(C(F)(F)F)cccc2n1-c1ccc(Oc2cccc(S(C)(=O)=O)c2)cc1 [Example 67, 2 ethyl-1-{4-[3-(methylsulfonyl)phenoxy]phenyl}-4-(trifluoromethyl)-1H-benzimidazole]
[1]; [4]
  pEC50: 6.07
[2]
  pIC50: 6.71
[3]
  pIC50: 7.00

## CCc1nc2c(C(F)(F)F)cccc2n1-c1ccc(Oc2cc(F)cc(S(C)(=O)=O)c2)cc1 [Example 69, 2-ethyl-1-{4-[3-fluoro-5-(methylsulfonyl)phenoxy]-phenyl}-4-(trifluoromethyl)-1H-benzimidazole]
[1]; [4]
  pEC50: 6.61
[2]
  pIC50: 6.55
[3]
  pIC50: 7.70

## CCCS(=O)(=O)c1cccc(Oc2cccc(-n3c(C)nc4c(C(F)(F)F)cccc43)c2)c1 [Example 10, 2-methyl-1-{3-[3-(propylsulfonyl)phenoxy]phenyl}-4-(trifluoromethyl)-1H-benzimidazole]
[1]; [4]
  pEC50: 6.21

## Cc1nc2c(C(F)(F)F)cccc2n1-c1cccc(Oc2cc(F)cc(S(C)(=O)=O)c2)c1 [Example 8, 1-{3-[3-fluoro-5-(methylsulfonyl)phenoxy]phenyl}-2-methyl-4-(trifluoromethyl)-1H-benzimidazole]
[1]; [4]
  pEC50: 6.37

## Cc1nc2c(Cl)cccc2n1-c1cccc(Oc2ccc(S(C)(=O)=O)cc2)c1 [Example 48, 4-chloro-2-methyl-1-{3-[4-(methylsulfonyl)phenoxy]phenyl}-1H-benzimidazole]
[1]; Homo sapiens, THP-1, 18 h
  pEC50: 5.95
[2]
  pIC50: 7.19
[3]
  pIC50: 8.22

## CS(=O)(=O)c1cccc(Oc2cccc(-n3c(-c4ccccc4)nc4c(C(F)(F)F)cccc43)c2)c1 [Example 30, 1-{3-[3-(methylsulfonyl)phenoxy]phenyl}-2-phenyl-4-(trifluoromethyl)-1H-benzimidazole]
[1]; [4]
  pEC50: 6.80

## CS(=O)(=O)c1cccc(Oc2cccc(-n3c(C4CC4)nc4c(C(F)(F)F)cccc43)c2)c1 [Example 31, 2-cyclopropyl-1-{3-[3-(methylsulfonyl)phenoxy]phenyl}-4-(trifluoromethyl)-1H-benzimidazole]
[1]; [4]
  pEC50: 6.12

## Cc1nc2c(Cl)cccc2n1-c1cccc(Oc2cccc(S(=O)(=O)C(F)(F)F)c2)c1 [Example 47, 4-chloro-2-methyl-1-(3-{3-[(trifluoromethyl)sulfonyl]phenoxy}phenyl)-1H-benzimidazole]
[1]; [4]
  pEC50: 6.67

## CCS(=O)(=O)c1cccc(Oc2cccc(-n3c(C)nc4c(C(F)(F)F)cccc43)c2)c1 [Example 5, 1-{3-[3-(ethylsulfonyl)phenoxy]phenyl}-2-methyl-4-(trifluoromethyl)-1H-benzimidazole]
[1]; [4]
  pEC50: 6.40

## Cc1nc2c(Cl)cccc2n1-c1cccc(Oc2cccc(S(C)(=O)=O)c2)c1 [Example 40, 4-chloro-2-methyl-1-{3-[3-(methylsulfonyl)phenoxy]phenyl}-1H-benzimidazole]
[1]; [4]
  pEC50: 6.50

## Cc1nc2c(C(F)(F)F)cccc2n1-c1cccc(Oc2cccc(S(=O)(=O)C(C)C)c2)c1 [Example 6, 1-{3-[3-(isopropylsulfonyl)phenoxy]phenyl}-2-methyl-4-(trifluoromethyl)-1H-benzimidazole]
[1]; [4]
  pEC50: 6.15

## Cc1nc2c(C(F)(F)F)cccc2n1-c1cccc(Oc2cccc(S(=O)(=O)CCCO)c2)c1 [Example 9, 3-[(3-{3-[2-methyl-4-(trifluoromethyl)-1H-benzimidazol-1-yl]phenoxy}-phenyl)sulfonyl]propan-1-ol]
[1]; [4]
  pEC50: 6.21
